Assay results from patent publication US20250195521A1 (Revolution Medicines, Inc., priority 2020, published 2025).
Where “and” joins values, the source holds several entries; their conditions need not be identical. Equal values may be shown once. Read-outs that look alike come from different tables or passages of the source.

Legend:
[1] = system: NCI-H358 cells (K-Ras G12C); assay: CellTiter-Glo cell viability, NCI-H358; type: cell-based, human; conditions: read-out: H358 Cell Viability IC50
Protocol: Note—The following protocol describes a procedure for monitoring cell viability of K-Ras mutant cancer cell lines in response to a compound of the invention. Other RAS isoforms may be employed, though the number of cells to be seeded will vary based on cell line used.
Test compounds (132.5 nl) were directly dispensed into the assay plates containing cells. […] On day 5, assay plates and their contents were equilibrated to room temperature for approximately 30 minutes. […] Luminescence was measured using the PerkinElmer Enspire. Data were normalized by the following: (Sample signal/Avg. DMSO)*100. The data were fit using a four-parameter logistic fit.

[2] = system: K-Ras G12C (NCI-H358 cells); assay: Potency assay: pERK in NCI-H358 cells; type: cell-based, human; conditions: NCI-H358 cells, 4 hours, read-out: pERK EC50 (H358 KRAS G12C)
Procedure, shortened: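 Cells plated the day before were exposed for 4 h at 37° C, 5% CO2 to a 10-point, 3-fold DMSO dilution series (10 mM top stock), in duplicate. Phospho-ERK was read by AlphaLISA SureFire Ultra or by In-Cell Western with DRAQ5 DNA stain, and IC50 came from a 4-parameter sigmoidal fit.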

[3] = system: Capan-1 cells (K-Ras G12V); assay: CellTiter-Glo cell viability, Capan-1; type: cell-based, human; conditions: K-Ras G12V, 5-day treatment, read-out: Capan-1 Cell Viability IC50
Procedure, shortened: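 Five-day treatment of K-Ras mutant cells with directly dispensed compound; ATP-based luminescence endpoint. Percent of DMSO signal fit to four-parameter logistic curve.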

NCI-H358 (K-Ras G12C) = assay: CellTiter-Glo cell viability assay, NCI-H358; type: cell-based, human; conditions: 5-day treatment, read-out: H358 Cell Viability assay data (K-Ras G12C, IC50)
Procedure, shortened: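 Five-day compound treatment of NCI-H358 cells, then CellTiter-Glo luminescence, percent of DMSO, four-parameter logistic fit.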

KRAS G12D = KRAS G12D (Homo sapiens (Human), UniProt P01116+P62937, G12D); assay: Ras-Raf disruption/FRET/MOA assay (BRAF RBD, Cyclophilin A); type: biochemical; conditions: read-out: KRAS G12D FRET IC50
Procedure, shortened: (§1)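 Measured: compound-facilitated Cyclophilin A:Ras complex blocking RAF RBD binding. Conditions: 12.5 nM Ras-GMPPNP, 50 nM BRAF RBD, 25 μM CypA, 3 h plus 1.5 h detection. Output: IC50 from TR-FRET ratio.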

KRAS G13C = KRAS G13C (Homo sapiens (Human), UniProt P01116+P62937, G13C); assay: as above; type: biochemical; conditions: read-out: KRAS G13C FRET IC50
Procedure, shortened: as §1

KRAS G12C = KRAS G12C (Homo sapiens (Human), UniProt P01116+P62937, G12C); assay: as above; type: biochemical; conditions: read-out: KRAS G12C FRET IC50
Procedure, shortened: as §1

KRAS WT = KRAS WT (Homo sapiens (Human), UniProt P01116+P62937); assay: as above; type: biochemical; conditions: read-out: KRAS WT FRET data IC50
Procedure, shortened: as §1

KRAS G12V = KRAS G12V (Homo sapiens (Human), UniProt P01116+P62937, G12V); assay: as above; type: biochemical; conditions: read-out: KRAS G12V FRET IC50
Procedure, shortened: as §1

KRAS G13D = KRAS G13D (Homo sapiens (Human), UniProt P01116+P62937, G13D); assay: as above; type: biochemical; conditions: read-out: KRAS G13D FRET data IC50
Procedure, shortened: as §1

KRAS G12S = KRAS G12S (Homo sapiens (Human), UniProt P01116+P62937, G12S); assay: as above; type: biochemical; conditions: read-out: KRAS G12S FRET IC50
Procedure, shortened: as §1

NRAS G12C = NRAS G12C (Homo sapiens (Human), UniProt P01111+P62937, G12C); assay: as above; type: biochemical; conditions: read-out: NRAS G12C FRET data IC50
Procedure, shortened: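 TR-FRET readout: anti-His Eu-W1024 (10 nM) and anti-GST allophycocyanin (50 nM) added after 3 h, 25° C compound incubation, then 1.5 h more. Decrease in FRET ratio versus DMSO wells marks Ras:RAF disruption; IC50 reported.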

[4] = Homo sapiens, NCI-H358, 120 h, K-Ras G12C, 5-day treatment

KRAS WT, sequence (P01116 other isoform, or with tags, fused parts or gaps): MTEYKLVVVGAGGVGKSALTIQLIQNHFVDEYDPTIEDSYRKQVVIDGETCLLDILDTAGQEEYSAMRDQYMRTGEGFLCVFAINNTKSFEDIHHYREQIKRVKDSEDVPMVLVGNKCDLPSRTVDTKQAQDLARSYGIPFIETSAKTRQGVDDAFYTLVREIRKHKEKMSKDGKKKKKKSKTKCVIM
KRAS WT, sequence (P62937 whole entry): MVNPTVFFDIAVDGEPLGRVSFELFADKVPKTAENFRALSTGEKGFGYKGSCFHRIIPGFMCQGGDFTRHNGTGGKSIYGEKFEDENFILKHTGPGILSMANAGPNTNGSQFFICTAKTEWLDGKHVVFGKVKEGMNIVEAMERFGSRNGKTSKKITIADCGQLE
KRAS G12S, sequence (P01116 other isoform, or with tags, fused parts or gaps G12S): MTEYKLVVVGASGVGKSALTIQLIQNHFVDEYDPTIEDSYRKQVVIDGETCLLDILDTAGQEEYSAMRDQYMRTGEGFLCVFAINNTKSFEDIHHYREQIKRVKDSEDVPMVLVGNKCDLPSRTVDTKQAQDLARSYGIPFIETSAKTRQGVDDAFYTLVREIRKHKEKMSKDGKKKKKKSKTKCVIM
KRAS G12S, sequence (P62937 whole entry): as the sequence (P62937 whole entry) above
KRAS G12D, sequence (P01116 other isoform, or with tags, fused parts or gaps G12D): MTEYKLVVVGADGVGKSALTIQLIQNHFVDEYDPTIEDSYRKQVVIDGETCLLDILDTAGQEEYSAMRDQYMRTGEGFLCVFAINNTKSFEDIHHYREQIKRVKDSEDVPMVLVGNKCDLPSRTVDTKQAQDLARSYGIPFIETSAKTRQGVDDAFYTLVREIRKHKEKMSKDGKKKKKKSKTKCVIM
KRAS G12D, sequence (P62937 whole entry): as the sequence (P62937 whole entry) above
KRAS G13C, sequence (P01116 other isoform, or with tags, fused parts or gaps G13C): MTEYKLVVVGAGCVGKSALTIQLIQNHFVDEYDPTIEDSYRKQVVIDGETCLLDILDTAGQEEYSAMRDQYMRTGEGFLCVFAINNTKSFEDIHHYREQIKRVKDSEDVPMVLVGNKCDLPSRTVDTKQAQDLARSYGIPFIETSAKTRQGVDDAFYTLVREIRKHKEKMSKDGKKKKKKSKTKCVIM
KRAS G13C, sequence (P62937 whole entry): as the sequence (P62937 whole entry) above
KRAS G12C, sequence (P01116-2 other isoform, or with tags, fused parts or gaps G12C): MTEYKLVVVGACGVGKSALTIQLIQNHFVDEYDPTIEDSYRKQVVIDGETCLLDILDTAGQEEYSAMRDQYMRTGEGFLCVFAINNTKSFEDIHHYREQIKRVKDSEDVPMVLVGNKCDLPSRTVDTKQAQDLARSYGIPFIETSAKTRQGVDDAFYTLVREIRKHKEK
KRAS G12C, sequence (P62937 whole entry): as the sequence (P62937 whole entry) above
KRAS G13D, sequence (P01116 other isoform, or with tags, fused parts or gaps G13D): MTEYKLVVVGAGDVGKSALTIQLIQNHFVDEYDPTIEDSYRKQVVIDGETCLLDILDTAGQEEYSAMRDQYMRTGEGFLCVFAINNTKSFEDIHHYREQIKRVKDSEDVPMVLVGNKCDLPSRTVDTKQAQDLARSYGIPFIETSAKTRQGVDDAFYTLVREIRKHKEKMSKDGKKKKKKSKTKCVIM
KRAS G13D, sequence (P62937 whole entry): as the sequence (P62937 whole entry) above
KRAS G12V, sequence (P01116 other isoform, or with tags, fused parts or gaps G12V): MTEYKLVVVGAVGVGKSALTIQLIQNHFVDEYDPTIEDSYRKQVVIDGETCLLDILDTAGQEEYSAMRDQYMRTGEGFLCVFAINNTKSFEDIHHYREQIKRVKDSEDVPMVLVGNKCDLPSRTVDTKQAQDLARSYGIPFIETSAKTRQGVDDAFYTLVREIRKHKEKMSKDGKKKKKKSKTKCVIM
KRAS G12V, sequence (P62937 whole entry): as the sequence (P62937 whole entry) above
NRAS G12C, sequence (P01111 whole entry G12C): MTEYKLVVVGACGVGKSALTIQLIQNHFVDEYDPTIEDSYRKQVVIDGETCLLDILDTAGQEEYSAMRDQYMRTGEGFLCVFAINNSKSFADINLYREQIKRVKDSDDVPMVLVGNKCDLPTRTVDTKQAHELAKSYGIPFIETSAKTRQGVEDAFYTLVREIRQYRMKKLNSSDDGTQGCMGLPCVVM
NRAS G12C, sequence (P62937 whole entry): as the sequence (P62937 whole entry) above

## CCn1c(-c2cccnc2[C@H](C)OC)c2c3cc(ccc31)-c1cc(O)cc(c1)C[C@H](NC(=O)[C@H](C(C)C)N(C)C(=O)[C@H]1C[C@@H]1O)C(=O)N1CCC[C@H](N1)C(=O)OCC(C)(C)C2 (single isomer, unassigned) [Compound A346]
[1]; K-Ras G12C, 5-day treatment
  IC50: 0.1 to 1 µM
[2]; Homo sapiens
  EC50: < 5 µM
[3]
  IC50: 0.1 to 1 µM

## CCn1c(-c2cnccc2COC)c2c3cc(ccc31)-c1cc(O)cc(c1)C[C@H](NC(=O)[C@H](C(C)C)N(C)C(=O)C1(C)COC1)C(=O)N1CCC[C@H](N1)C(=O)OCC(C)(C)C2 [Compound A49]
NCI-H358 (K-Ras G12C); Homo sapiens, NCI-H358, 120 h
  IC50: > 10 µM
KRAS G12D
  IC50: 1 to 10 µM
KRAS G13C
  IC50: 1 to 10 µM
KRAS G12C
  IC50: 0.1 to 1 µM
KRAS WT
  IC50: 0.1 to 1 µM
KRAS G12V
  IC50: 0.1 to 1 µM
KRAS G13D
  IC50: 1 to 10 µM
KRAS G12S
  IC50: 1 to 10 µM
NRAS G12C
  IC50: 1 to 10 µM

## CCn1c(-c2cnccc2COC)c2c3cc(ccc31)-c1cc(O)cc(c1)C[C@H](NC(=O)[C@H](C(C)C)N(C)C(=O)OC1CCOC1)C(=O)N1CCC[C@H](N1)C(=O)OCC(C)(C)C2 (stereo partly drawn) [Compound A50, oxolan-3-yl-N-[(1S)-1-{[(8S,14S)-22-ethyl-4-hydroxy-21-[4-(methoxymethyl)pyridin-3-yl]-18,18-dimethyl-9,15-dioxo-16-oxa-10,22,28-triazapentacyclo [18.5.2.1^2,6.1^10,14.0^23,27]nonacosa-1 (26),2,4,6 (29),20,23 (27),24-heptaen-8-yl]carbamoyl}-2-methylpropyl]-N-methylcarbamate]
[1]; Homo sapiens, NCI-H358, 120 h
  IC50: 1 to 10 µM

## CCn1c(-c2cccnc2COC)c2c3cc(ccc31)-c1cc(O)cc(c1)C[C@H](NC(=O)[C@H](C(C)C)N(C)C(C)=O)C(=O)N1CCC[C@H](N1)C(=O)OCC(C)(C)C2 [Compound A55]
KRAS G12D
  IC50: > 10 µM
KRAS G13C
  IC50: 0.1 to 1 µM
KRAS G12C
  IC50: 1 to 10 µM
KRAS WT
  IC50: 1 to 10 µM
KRAS G12V
  IC50: 1 to 10 µM
KRAS G12S
  IC50: 1 to 10 µM
[1]; [4]
  IC50: 1 to 10 µM
[2]; Homo sapiens
  EC50: < 5 µM

## CCn1c(-c2cccnc2COC)c2c3cc(ccc31)-c1cc(O)cc(c1)C[C@H](NC(=O)[C@H](C(C)C)N(C)C(=O)c1ccc(NC(=O)/C=C/CN(C)C)cn1)C(=O)N1CCC[C@H](N1)C(=O)OCC(C)(C)C2 [Compound A67, (2E)-4-(dimethylamino)-N-(6-{[(1S)-1-{[(8S,14S)-22-ethyl-4-hydroxy-21-[2-(methoxymethyl)pyridin-3-yl]-18,18-dimethyl-9,15-dioxo-16-oxa-10,22,28-triazapentacyclo [18.5.2.1^2,6.1^10,14.0^23,27]nonacosa-1 (26),2,4,6 (29),20,23 (27),24-heptaen-8-yl]carbamoyl}-2-methylpropyl](methyl)carbamoyl}pyridin-3-yl) but-2-enamide]
NCI-H358 (K-Ras G12C)
  IC50: 0.1 to 1 µM
KRAS G12D
  IC50: 0.1 to 1 µM
KRAS G13C
  IC50: 0.01 to 0.1 µM
KRAS G12C
  IC50: 0.01 to 0.1 µM
KRAS G12V
  IC50: 0.1 to 1 µM
KRAS G12S
  IC50: 0.1 to 1 µM
[1]; K-Ras G12C, 5-day treatment
  IC50: 1 to 10 µM
[2]
  EC50: < 5 µM

## CCn1c(-c2ccccc2CCOC)c2c3cc(ccc31)-c1cc(O)cc(c1)C[C@H](NC(=O)[C@H](C(C)C)N(C)C(=O)CNC(=N)N)C(=O)N1CCC[C@H](N1)C(=O)OCC(C)(C)C2 [Compound A69]
NCI-H358 (K-Ras G12C); Homo sapiens, NCI-H358, 120 h
  IC50: 0.01 to 0.1 µM
KRAS G12D
  IC50: 1 to 10 µM
KRAS G13C
  IC50: 0.1 to 1 µM
KRAS G12C
  IC50: 0.1 to 1 µM
KRAS WT
  IC50: 1 to 10 µM
KRAS G12V
  IC50: 1 to 10 µM
KRAS G13D
  IC50: 1 to 10 µM
KRAS G12S
  IC50: 0.1 to 1 µM
[1]; [4]
  IC50: > 10 µM
[2]; Homo sapiens
  EC50: < 5 µM

## CCn1c(-c2cnccc2COC)c2c3cc(ccc31)-c1cc(O)cc(c1)C[C@H](NC(=O)[C@H](C(C)C)N(C)C(=O)C1CNC1)C(=O)N1CCC[C@H](N1)C(=O)OCC(C)(C)C2 [Compound A87]
NCI-H358 (K-Ras G12C); Homo sapiens, NCI-H358, 120 h
  IC50: 0.01 to 0.1 µM
KRAS G12D
  IC50: 0.1 to 1 µM
KRAS G13C
  IC50: 0.1 to 1 µM and 0.01 to 0.1 µM
KRAS G12C
  IC50: 0.1 to 1 µM and 0.01 to 0.1 µM
KRAS WT
  IC50: 0.01 to 0.1 µM and 0.1 to 1 µM
KRAS G12V
  IC50: 0.1 to 1 µM and 1 to 10 µM
KRAS G13D
  IC50: 0.01 to 0.1 µM and 0.1 to 1 µM
KRAS G12S
  IC50: 0.1 to 1 µM and 0.01 to 0.1 µM
NRAS G12C
  IC50: 0.01 to 0.1 µM and 0.1 to 1 µM
[2]; Homo sapiens
  EC50: < 5 µM
[3]; Homo sapiens, CAPAN-1, 120 h
  IC50: > 10 µM

## CCn1c(-c2cccnc2[C@H](C)OC)c2c3cc(ccc31)-c1csc(n1)C[C@H](NC(=O)[C@H](C(C)C)N(C)C(=O)O[C@H]1CCN(C)C1)C(=O)N1CCC[C@H](N1)C(=O)OCC(C)(C)C2 [Compound A173]
[1]; [4]
  IC50: 0.1 to 1 µM
